Legend:
Assay type in all cases: in vivo, human
nitric oxide (NO) = test: Nitric oxide level, metabolic syndrome subjects; details: for NO: MS, 400 mcg; for NO Post Tt / Mean percentage change in NO / NO Pre Tt: metabolic syndrome subjects (Example 4), chromium products 400 mcg; for NO Post Tt: after 12 weeks of treatment; for Mean percentage change in NO: after 12 weeks treatment; for NO Pre Tt: pre-treatment
Procedure: (§1) Nitric oxide, MDA, Glutathione and levels were estimated spectrophotometrically as follows. Malondialdehyde (MDA) levels were determined as described in Vidyasagar, et al., “Oxidative stress and antioxidant status in acute organophosphorous insecticide poisoning,” Indian J. Pharmacol. (April 2004) 36(2): 76-79. Glutathione levels were determined as described in G. L. Ellman, Arch. Biochem. Biophys. (1959) 82: 70-77 (original determination). Nitric oxide levels were estimated spectrophotometrically as described in Miranda, et al., “A Rapid, Simple Spectrophotometric Method for Simultaneous Detection of Nitrate and Nitrite,” NITRIC OXIDE: Biology and Chemistry (2001) Vol. 5, No. 1, pp. 62-71. hsCRP (high sensitivity C-reactive protein) was determined by ELISA method.
(§2) Patients included in the study, were of either gender, aged 30-68 years, having endothelial dysfunction defined as ≤6% change in reflection index (RI) on post salbutamol challenge test and central obesity as defined by The International Diabetes Federation guidelines, dated 2006, and any two of the following conditions:
(§3) After screening, all the eligible subjects were randomized to receive either one of the three treatments orally for duration of 12 weeks: group 1—one capsule of Crominex®3+ 200 mcg once daily; group 2—one capsule 400 mcg once daily; group 3—one capsule of Placebo once daily.
(§4) Subjects were reviewed for follow up at 4 weeks, 8 and 12 weeks of therapy. At each visit they were evaluated for efficacy and safety. Pharmacodynamic evaluation for endothelial function was conducted at baseline and end of treatment. Blood samples were collected for evaluation of biomarkers before and at end of treatment. Safety lab investigations for hematological, hepatic and renal biochemical parameters were conducted before and at the end of the study and also as and when required (in case of any adverse drug reaction (ADR)). Subjects were enquired for the presence of ADR and the same was recorded in the case report form. Compliance to therapy was assessed by pill count method.
(§5) Assessment of endothelial function, biomarkers, safety parameters and primary and secondary efficacy parameters and data analysis were performed as described under the study with type 2 diabetic subjects in Example 1.
(§6) When the results with Crominex® 3+ in the above two examples were highly significant, especially with the 400 mcg once daily dose in type 2 diabetics, two more clinical studies (EXAMPLES 3 & 4) were conducted at the same institute, following the same methodology as described earlier, on the individual components of Crominex® 3+, i.e., chromium chloride and Phyllanthus emblica+Shilajit, and other chromium supplements available in the market, i.e., chromium picolinate, chromium polynicotinate and chromium dinicocysteinate, in type 2 diabetics as well as in subjects with metabolic syndrome symptoms.

malondialdehyde (MDA) = test: Malondialdehyde level, metabolic syndrome subjects; details: for MDA: MS, 400 mcg; for MDA Post Tt / Mean percentage change in MDA / MDA Pre Tt: metabolic syndrome subjects (Example 4), chromium products 400 mcg; for MDA Post Tt: after 12 weeks of treatment; for Mean percentage change in MDA: after 12 weeks treatment; for MDA Pre Tt: pre-treatment
Procedure: as §1, §2, §3, §4, §5, §6

lipid profile = test: Lipid profile (TC, HDL-C, LDL-C, TG), metabolic syndrome subjects; details: for HDL / LDL / TC / TG: MS; for HDL / LDL / TC / TG / LDL-C, mean percentage change: 400 mcg; for HDL-C Post Tt / LDL-C Post Tt / Mean percentage change in HDL-C / Mean percentage change in Total Cholesterol / Mean percentage change in Triglycerides / Total Cholesterol Post Tt / Triglycerides Post Tt / HDL-C Pre Tt / LDL-C Pre Tt / Total Cholesterol Pre Tt / Triglycerides Pre Tt: metabolic syndrome subjects (Example 4), chromium products 400 mcg; for HDL-C Post Tt / LDL-C Post Tt / Mean percentage change in HDL-C / Mean percentage change in Total Cholesterol / Mean percentage change in Triglycerides / Total Cholesterol Post Tt / Triglycerides Post Tt: after 12 weeks of treatment; for HDL-C Pre Tt / LDL-C Pre Tt / Total Cholesterol Pre Tt / Triglycerides Pre Tt: pre-treatment; for LDL-C, mean percentage change: mean percentage change after 12 weeks of treatment, Example 4
Text: All the subjects had undergone complete physical examination, safety lab evaluations at baseline and at the end of the treatment. Samples were collected after an overnight fast of 12 hrs after the last dose of medication for determination of hemoglobin, glycosylated hemoglobin (HbA1c), blood urea, serum creatinine, liver function, lipid profile (Total cholesterol, High density lipoprotein cholesterol (HDL-C), low density lipoprotein cholesterol (LDL-C) using appropriate standard techniques.
as §2, with “conditions: […]” for “conditions:”
as §4, §5, §6

Row | Molecule | NO (nitric oxide (NO)) [%] | NO Post Tt (nitric oxide (NO)) [μM/L] | Mean percentage change in NO (nitric oxide (NO)) [%] | NO Pre Tt (nitric oxide (NO)) [μM/L] | MDA (malondialdehyde (MDA)) [%] | MDA Post Tt (malondialdehyde (MDA)) [nM/ml] | Mean percentage change in MDA (malondialdehyde (MDA)) [%] | MDA Pre Tt (malondialdehyde (MDA)) [nM/ml] | HDL (lipid profile) [%] | LDL (lipid profile) [%] | TC (lipid profile) [%] | TG (lipid profile) [%] | HDL-C Post Tt (lipid profile) | LDL-C Post Tt (lipid profile) | Mean percentage change in HDL-C (lipid profile) [%] | Mean percentage change in Total Cholesterol (lipid profile) [%] | Mean percentage change in Triglycerides (lipid profile) [%] | Total Cholesterol Post Tt (lipid profile) | Triglycerides Post Tt (lipid profile) [mg/dL] | HDL-C Pre Tt (lipid profile) [mg/dL] | other results
1 | O.O.O.O.O.O.[Cl][Cr]([Cl])[Cl] [Chromium chloride, Chromium chloride (CrCl3.6H2O)] | 5.5 | 30.99 ± 4.46 | 5.50 ± 1.73 | 29.39 ± 4.43 | −4.65 | 3.76 ± 0.42 | −4.65 ± 1.95 | 3.94 ± 0.42 | −1.08 | 0.79 | 0.49 | 0.92 | 36.79 ± 5.14 NS mg/dl | 117.37 ± 9.13 NS mg/dl | −1.08 ± 3.45 | 0.49 ± 1.30 | 0.92 ± 1.43 | 189.21 ± 10.80 NS mg/dl | 175.26 ± 9.70 | 37.21 ± 5.16 | LDL-C Pre Tt (lipid profile): 116.42 ± 9.75 mg/dL; Total Cholesterol Pre Tt (lipid profile): 188.37 ± 11.78 mg/dL; Triglycerides Pre Tt (lipid profile): 173.68 ± 9.70 mg/dL
2 | chromium dinicocysteinate | 7.68 | 32.66 ± 3.88 | 7.68 ± 2.25 | 30.33 ± 3.58 | −6.7 | 3.74 ± 0.42 | −6.67 ± 1.47 | 4.00 ± 0.42 | −0.71 | 2.11 | 1.4 | 1.04 | 36.61 ± 5.67 NS mg/dl | 113.64 ± 14.96 mg/dL | −0.71 ± 3.95 | 1.40 ± 1.03 | 1.04 ± 1.06 | 184.50 ± 12.49 mg/dL | 171.22 ± 6.92 | 36.83 ± 5.22 | LDL-C, mean percentage change (lipid profile): 2.11%; LDL-C Pre Tt (lipid profile): 111.22 ± 14.34 mg/dL; Total Cholesterol Pre Tt (lipid profile): 181.94 ± 12.10 mg/dL; Triglycerides Pre Tt (lipid profile): 169.44 ± 6.24 mg/dL
3 | chromium picolinate | 13.9 | 32.94 ± 3.79 | 13.92 ± 2.65 | 28.94 ± 3.56 | −7.1 | 3.60 ± 0.46 | −7.14 ± 1.70 | 3.87 ± 0.47 | 2.1 | −2.19 | −1.18 | −1.07 | 37.84 ± 4.45@ mg/dl | 111.55 ± 12.58 mg/dL | 2.10 ± 2.84 | −1.18 ± 0.90 | −1.07 ± 1.20 | 182.84 ± 12.60 mg/dL | 167.26 ± 10.71 | 37.11 ± 4.32 | LDL-C, mean percentage change (lipid profile): -2.19%; LDL-C Pre Tt (lipid profile): 114.13 ± 12.80 mg/dL; Total Cholesterol Pre Tt (lipid profile): 185.05 ± 13.03 mg/dL; Triglycerides Pre Tt (lipid profile): 169.11 ± 11.02 mg/dL
4 | chromium polynicotinate | 5.35 | 32.93 ± 4.66 | 5.35 ± 0.96 | 31.26 ± 4.46 | −5.4 | 3.83 ± 0.41 | −5.38 ± 1.31 | 4.04 ± 0.40 | −1.55 | 1.86 | 0.95 | 0.83 | 36.20 ± 5.15 NS mg/dl | 111.95 ± 12.95 mg/dL | −1.55 ± 4.17 | 0.95 ± 1.33 | 0.83 ± 1.22 | 182.75 ± 14.03 mg/dL | 173.00 ± 9.33 | 36.85 ± 5.48 | LDL-C, mean percentage change (lipid profile): 1.86%; LDL-C Pre Tt (lipid profile): 109.88 ± 12.76 mg/dL; Total Cholesterol Pre Tt (lipid profile): 181.05 ± 13.98 mg/dL; Triglycerides Pre Tt (lipid profile): 171.60 ± 9.43 mg/dL

From patent publication US10183047B2, “Chromium-containing compositions in combination with Phyllanthus emblica and shilajit having synergistic effects for improving endothelial function and cardiovascular health” (Natreon, Inc., priority 2014, dated 2019)
